Test results: the supplement of paper PMC10307832

What was measured:
Experiment in all cases: relative viability (nuclei count vs DMSO), 5 days (fraction); higher = more cells survive
[1] = compound: CCC1=CN=CN=C1N2CCN(CC2)CC3=NC4=C(N3)C=C(C=C4)C(F)(F)F + CCNC(=O)c1noc(-c2cc(C(C)C)c(O)cc2O)c1-c1ccc(CN2CCOCC2)cc1 [Luminespib] (partner 0.01 µM)
Procedure, shortened: (§1)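 Each reported value is a median over duplicate plates. It expresses relative viability: treated-well nuclei count divided by vehicle-well nuclei count. Lung cancer cell lines in 1536-well plates were dosed by pin tool a day after seeding, alone with one drug or with a fixed anchor-drug dose plus five library-drug doses (not always all listed) in √10 steps, and nuclei were counted after 5 days.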

[2] = compound: CCC1=CN=CN=C1N2CCN(CC2)CC3=NC4=C(N3)C=C(C=C4)C(F)(F)F + C[C@@H](Oc1cc(-c2cnn(C3CCNCC3)c2)cnc1N)c1c(Cl)ccc(F)c1Cl [Crizotinib] (partner 1 µM)
Procedure, shortened: as §1

[3] = compound: CCC1=CN=CN=C1N2CCN(CC2)CC3=NC4=C(N3)C=C(C=C4)C(F)(F)F + NC(=O)Nc1cc(-c2cccc(F)c2)sc1C(=O)N[C@H]1CCCNC1 [AZD7762] (partner 0.2 µM)
Procedure, shortened: as §1

[4] = compound: CCn1c(-c2nonc2N)nc2cnc(Oc3cccc(NC(=O)c4ccc(OCCN5CCOCC5)cc4)c3)cc21 + CS(=O)(=O)CCNCc1ccc(-c2ccc3ncnc(Nc4ccc(OCc5cccc(F)c5)c(Cl)c4)c3c2)o1 [Lapatinib] (partner 2 µM)
Procedure, shortened: as §1

Cell Line	relative viability ([1]; first compound 0.04 µM)	relative viability ([1]; first compound 0.1265 µM)	relative viability ([1]; first compound 0.4 µM)	relative viability ([1]; first compound 1.265 µM)	relative viability ([1]; first compound 4 µM)	relative viability ([2]; first compound 0.04 µM)	relative viability ([2]; first compound 0.1265 µM)	relative viability ([2]; first compound 0.4 µM)	relative viability ([2]; first compound 1.265 µM)	relative viability ([2]; first compound 4 µM)	relative viability ([3]; first compound 0.04 µM)	relative viability ([3]; first compound 0.1265 µM)	relative viability ([3]; first compound 0.4 µM)	relative viability ([3]; first compound 1.265 µM)	relative viability ([3]; first compound 4 µM)	relative viability ([4]; first compound 0.04 µM)	relative viability ([4]; first compound 0.1265 µM)	relative viability ([4]; first compound 0.4 µM)	relative viability ([4]; first compound 1.265 µM)	relative viability ([4]; first compound 4 µM)
NCI-H1355	0.707	0.641	0.689	0.61	0.753	1.07	1.01	1	1.14	1.15	0.744	0.722	0.638	0.627	0.637	1.07	0.978	0.712	0.62	0.597
EKVX	0.846	0.83	0.882		0.919	1.22	0.728	0.915	0.873	1.07	0.724	0.712	0.756	0.646	0.777	0.446	0.221	0.177	0.197	0.229
NCI-H460	0.0311	0.0367	0.0386	0.0407	0.0253	1.06	1.03	0.886	0.832	1.14	0.622	0.528	0.619	0.578	0.6	1.93	0.994	0.656	0.202	0.299
NCI-H1975	0.283	0.302	0.176	0.199	0.205	1.08	0.983	0.968	1.11	1.04	0.662	0.744	0.713	0.645	0.746	0.778	0.729	0.477	0.435	0.331
HCC-78						0.304	0.3	0.345	0.322	0.379	0.564	0.559	0.668	0.525	0.631	0.905	0.906	0.461	0.816	0.756
NCI-H2085	0.442	0.481	0.421	0.387	0.356	0.86	0.909	0.93	0.892	0.948	0.75	0.941	0.987	0.791	1.03	0.865	0.75	0.684	0.602	0.714
H3255	0.785	0.853	0.72	0.619	0.859	0.864	0.888	0.794	0.757	0.941	0.86	0.852	0.824	0.931	0.874	0.293	0.305	0.237	0.271	0.256
NCI-H2126	0.847	0.89	0.931	0.773	0.922	1.01	1	0.959	1.01	1.1	0.97	1.02	0.957	1.02	1.17	0.764	0.782	0.541	0.742	0.825
LC-2-ad	0.952	1.01	1.01	0.873	0.939	0.501	0.431	0.503	0.749	0.852	0.87	0.807	0.823	0.81	0.804	0.992	0.968	0.578	0.435	0.412
RERF-LC-KJ	1.24	1.23	1.21	1.12	1.05	0.761	0.729	0.881	0.913	0.982	0.795	0.953	0.976	0.97	0.952	0.933	0.827	0.717	0.684	0.606
EBC-1						0.186	0.169	0.218	0.196	0.169						0.224	0.206	0.196	0.179	0.197
HCC-15	0.308	0.299	0.27	0.299	0.406	0.75	0.78	0.819	0.946	1.06	1.3	1.11	1.1	1.32	1.32	0.962	0.736	0.779	0.628	0.745
NCI-H1563	0.539	0.545	0.529	0.478	0.531	0.822	0.847	0.928	0.962	1.09						1.01	0.822	0.804	0.782	0.673
COR-L 105	0.8	1.08	0.77	0.724	0.732	0.861	0.795	0.972	0.922	1.24						0.327	0.412	0.278	0.288	0.297
NCI-H596	1.25	1.02	0.814		1.03	0.91	1.06	0.971	1	1.14	1.21	1.07	1.07	0.992	1.08	1.04	0.942	0.978	0.87	0.97
LU99A	0.247	0.227	0.309	0.22	0.229	0.543	0.53	0.541	1	1.09	0.41	0.301	0.34	0.359	0.403	1.15	0.845	0.641	0.862	0.694
NCI-H1666	0.949	0.906	0.925	0.908	1.04	0.974	0.916	1.1	0.849	1.03	0.864	0.77	0.767	0.716	0.815	0.792	0.777	0.592	0.498	0.329
NCI-H522	1.16	1.24	1.15	0.867	0.987						0.87	0.869	0.707	0.748	0.901					
